Key:
αTC1-6 glucagonoma cells = experiment: αTC1-6 cell proliferation (CellTiter 96 Aqueous), WT and Slc38a5 KD; format: cell-based; settings: 4 mM in culture medium, 5 days; for cell proliferation, Slc38a5 knock-down αTC1-6 cells: compared with wildtype cells
Excerpt: Slc38a5 KO αTC1 clones were generated using CRISPR-Cas9 techniques. Target sequences (sgRNAs) were designed using an online sgRNA design tool from DNA2.0 (DNA2.0). The sgRNAs were cloned into the pSpCas9-2A-GFP-Puro vector using BsmBl (NEB) and αTC1 cells were transfected with Lipofectamine 2000 according to the manufacturers' instructions (Life Technologies). Clones with deletion mutations were verified by PCR amplifications, TaqMan analysis and RNA sequencing. […] Both WT and Slc38a5 KD αTC1/6 cells were prepared in an assay medium (MEM from Gibco), supplemented with 5% fetal bovine serum (FBS), 10 mM HEPES, and 100 IU/ml penicillin and 100 μg/ml streptomycin) and seeded on 96-well plates at a density of ˜15,000 cells per well in 4-6 replicates. Selected amino acids were added to the final concentration of 4 mM. Cell proliferations were measured every day using the CellTiter 96 Aqueous Cell Proliferation Assay (Promega) according to the manufacturer's instructions. Briefly, 20 μl of assay reagent was added to each well and the cell plates were incubated in a tissue culture incubator for 2.5 hours. Absorbance was measured at 490 nm on a plate reader SpectraMax Plus (Molecular Devices). Values were corrected for background absorbance using the averages of the wells containing assay medium only and plotted in Prism (GraphPad).

C57BL/6 mice = experiment: GCGR antibody with or without rapamycin in C57BL/6 mice: blood chemistry, islet cell mass; settings: GCGR-antibody and rapamycin-treated mice
Method: C57BL/6 mice (males, 10 weeks of age, Taconic) were housed (5 mice per cage) in a controlled environment (12-h light/dark cycle, 22±1° C., 60-70% humidity) and fed ad libitum with standard chow (Purina Laboratory Rodent Diet 5001, LabDiet). Mice were assigned to study groups (n=10) based on baseline blood glucose levels. Mice were injected subcutaneously (sc) with GCGR antibody (3 mg/kg) or the control antibody (3 mg/kg) alone or in combination with rapamycin (10 mg/kg) or the vehicle. For the duration of the study, GCGR or control antibody was administered once weekly, whereas rapamycin or the vehicle was administered daily. Blood was collected from the tail for glucose measurements without fasting. Plasma samples were collected via submandibular bleeds at baseline and on day 21 after dosing for analysis of hormones and total amino acid levels. Seven days after the last antibody administration (day 21), mice were sacrificed, organs weighed and pancreata collected.
Pancreas α- and β-cell mass was measured as described elsewhere (Okamato et al., 2015, Endocrinology 156:2781-2794). α- and PP cell mass were determined using anti-somatostatin antibody (Sigma-Aldrich; #SAB4502861) and anti-pancreatic polypeptide antibody (Sigma-Aldrich; #SAB2500747). For quantifying Slc38a5 positive α-cells, pancreas sections were stained with human anti-glucagon and rabbit anti-Slc38a5 (Abcam; #ab72717) primary antibodies, and Alexa Fluor 488 labeled donkey anti-rabbit (Jackson ImmunoResearch; #711-545-152) and Alexa Fluor 594 donkey anti-human (Jackson ImmunoResearch; #709-585-149) secondary antibodies. For quantifying proliferating cells, Alexa Fluor 647 labeled anti-Ki67 (Abcam; #ab194724) was used in combination with anti-glucagon and anti-Slc38a5 antibodies. Slides were scanned using a Zeiss Axio Scan.Z1 slide scanner (Zeiss) and the images were analyzed using the Halo (Indica Labs).
Blood glucose was determined using ACCU-CHEK® Compact Plus (Roche Diagnostics). Plasma glucagon and insulin levels were determined using glucagon and mouse insulin ELISA (Mercodia). Plasma total amino acid levels were measured using L-Amino Acid Quantification Kit (Sigma-Aldrich).

| muscle mass (C57BL/6 mice) | Structure (SMILES) | rate of cell proliferation, wildtype αTC1-6 cells (αTC1-6 glucagonoma cells) | cell proliferation, Slc38a5 knock-down αTC1-6 cells (αTC1-6 glucagonoma cells) |
| --- | --- | --- | --- |
|  | NC(=O)CC[C@H](N)C(=O)O [glutamine] | significantly increased | to a much lesser extent |
|  | C[C@H](N)C(=O)O [alanine] | significantly increased | to a much lesser extent |
| small reduction | CO[C@H]1C[C@@H]2CC[C@@H](C)[C@@](O)(O2)C(=O)C(=O)N2CCCC[C@H]2C(=O)O[C@H]([C@H](C)C[C@@H]2CC[C@@H](O)[C@H](OC)C2)CC(=O)[C@H](C)/C=C(\C)[C@@H](O)[C@@H](OC)C(=O)[C@H](C)C[C@H](C)/C=C/C=C/C=C/1C [rapamycin, reference compound] |  |  |

— US20190248888A1, “METHODS OF LOWERING BLOOD GLUCOSE LEVELS” (Regeneron Pharmaceuticals, Inc., priority 2016, published 2019)
